Literature values, collected in patent US11439647B2 (Janssen Pharmaceutica NV, priority 2020, dated 2022).

- water solubility: extreme low
SMILES: CCCCCCCCCCCCCCCC(=O)OC1CCCn2c1nc(C)c(CCN1CCC(c3noc4cc(F)ccc34)CC1)c2=O (racemic) [paliperidone palmitate, (±)-3-[2-[4-(6-fluoro-1,2-benzisoxazol-3-yl)-1-piperidinyl]ethyl]-6,7,8,9-tetrahydro-2-methyl-4-oxo-4H-pyrido[1,2-c]pyrimidin-9-yl hexadecanoate]
